# Measured values taken from article PMC3790782, “Optimization and Pharmacological Validation of a Leukocyte Migration Assay in Zebrafish Larvae for the Rapid In Vivo Bioactivity Analysis of Anti-Inflammatory Secondary Metabolites” (PLoS ONE, 2013).
# Marks after values point to notes of the source that are not given here.
# What was measured:
# [1] = tested on: NO, RAW 264.7; parameters: method as in PMID 15621702, PMID 19678956, PMID 19885845; conditions: cited from earlier work
# [2] = tested on: zebrafish larvae; conditions: 4 dpf zebrafish larvae, 8 h post-incubation; not more than 2 of 10 larvae with signs of toxicity
# Description: For the toxicological analysis, ten 4 dpf zebrafish larvae were used per well in 24-well culture plates. Incubation of each set of larvae at 28°C (±0.5) was done with SAIDs, NSAIDs and non-AIDs at concentrations ranging from 0.1 µM to 500 µM, with NPs at concentrations ranging from 1 µM to 500 µM, and with PEs at concentrations ranging from 1 ug/ml to 1 mg/ml. Controls containing only vehicle (1% DMSO) and untreated larvae were processed in parallel. Examination of each set of larvae was done under light microscopy (Carl Zeiss Stemi 2000C) each hour during a period of 8 h, and a final evaluation at 24 h post-incubation. At 8 h post-incubation, signs of toxicity, e.g. pericardial oedema, cardiovascular defects (arrhythmia or decreased circulation), balance defects (loss of normal posture), locomotor defects (decreased touch response), and ultimately death were scored for every drug, NP, and PE to further establish their maximum tolerated concentration (MTC). […] In this context, only non-toxic concentrations (below the MTC) were considered for further leukocyte migration analysis. All the toxicological assays were performed in duplicate using a different batch of zebrafish larvae for each set of experiments.
# Toxicological assessment of all the samples analyzed in our study was done prior to the evaluation of their anti-inflammatory properties. The maximum tolerated concentrations (MTCs) were determined at 8 h post-treatment according to toxicological parameters including pericardial oedema, cardiovascular defects (arrhythmia or decreased circulation), balance defects (loss of normal posture), locomotor defects (decreased touch response), and death. […] Vehicle-treated (1% DMSO) and untreated larvae were processed in parallel to minimize experimental variability in this toxicological evaluation.
# [3] = tested on: leukocyte migration in 4 dpf zebrafish larvae; test: LPS-enhanced leukocyte migration assay (tail transection, MPO staining, RLM); format: in vivo, zebrafish (Danio rerio); parameters: Anti-inflammatory activity at MTC: concentration or dose not given beside the values
# Description: The lipopolysaccharide- (LPS−)enhanced leukocyte migration assay was carried out by triplicate for each sample in 4 dpf zebrafish larvae. The total incubation period of the assay was eight hours. Initially, a pre-incubation step (i.e. prior to tail transection) of one hour at 28°C (±0.5°C) was carried out in 24-well culture plates. Ten larvae per well were incubated in 1 ml of testing mix, consisting of a specific concentration of each sample and the amount of 0.3 X Danieau’s medium necessary to complete 1 ml. Immediately after pre-incubation, complete tail transection in each larva was performed. Zebrafish larvae were first anesthetized by immersion in 0.3 X Danieau’s medium containing 70 µg/ml tricaine (ethyl 3-aminobenzoate, Sigma-Aldrich) and then tail transection near the tip was performed with a sterile scalpel under light microscopy (Carl Zeiss Stemi 2000C). Larvae were then placed in fresh 0.3 X Danieau’s medium without anesthetic for a few minutes until the final incubation period. For the last step, a new testing mix was prepared including 10 µg/ml lipopolysaccharides from Salmonella typhosa ATCC 10749 (LPS, Sigma-Aldrich Chemical) to enhance leukocyte migration to the injured zone. The final incubation step (i.e. subsequent to tail transection) of the injured larvae in contact with the pro-inflammatory agent and with the specific concentration of each SAID, NSAID, non-AID, NP, and PE at 28°C (±0.5°C) was done for 7 h. Within this period, sporadic evaluations of the larvae were done to examine their viability during the time of the assay. Larvae that completed the incubation time were fixed overnight in 4% formaldehyde (Sigma-Aldrich) at 4°C. Controls containing only the vehicle (1% DMSO) were processed in parallel.
# Fixed larvae were gently washed twice with 1 X PBST (PBS-1X phosphate buffered saline, Gibco +0.1% Tween 20) for 5–10 min and then incubated at room temperature in 1 ml of freshly prepared Leucognost® Pox (Merck) staining solution, made according the directions of the provider. Observation of stained black-brown cells (leukocytes) in the larvae was possible within 15 min of incubation. Evaluation of the migrating leukocytes, particularly surrounding the injured region, in each larva was done under light microscopy (Carl Zeiss Stemi 2000C) and scoring was done using a migration scale established to semi-quantify the amount of migrating leukocytes on one side of each larva.
# The average of the value achieved for each of the ten larvae tested in triplicate for one sample is expressed as relative leukocyte migration (RLM) according to the formula: RLM = leukocyte migration of the larva/average leukocyte migration of the negative control.
# To determine the extent of leukocyte migration generated after exposing 4 dpf zebrafish larvae to mechanical and biological stimuli – namely tail transection and LPS exposure – we used a commercially available whole-mount cytochemical staining method (Leucognost® Pox, Merck) to detect MPO activity in situ. To minimize the number of handling steps post-staining, this method was chosen over the alternative myeloperoxidase stain Sudan Black B [26], [27], which also stains phospholipids, neural fats and sterols. In our experiments, we visualized migrating leukocytes in 4 dpf larvae at 8 h post-injury. Microscopic evaluations of MPO-stained larvae allowed us to score the degree of leukocyte migration at the trauma site according to a comparative scale that we established particularly for this purpose (Figure 2). Myeloperoxidase-positive cells, appearing as black-brown dots, were counted in a segment at the edge of the tail on one side of every larva (Figure 2). The number of leukocytes was then graded according to the comparative scale and subsequently converted into a relative value expressed as the relative leukocyte migration (RLM) activity for the total number or larvae for one sample.
structure (smiles),measurement,setting,value
"O=C(O)/C=C/c1ccc(O)c(O)c1 [Caffeic acid, caffeic acid]",IC50,[1],4.8 µM
same,Maximum tolerated concentration (MTC),[2],500 µM
same,Leukocyte migration (RLM),"[3]; 500 µM, tail cut + 10 µg/ml LPS, relative to 1% DMSO control",0.14 ^**
same,response vs control in vivo at 1 µM,"[3]; Danio rerio, Leukocyte, 8 h, 1 µM, tail cut + 10 µg/ml LPS, relative to 1% DMSO control",80%
same,response vs control in vivo at 10 µM,"[3]; Danio rerio, Leukocyte, 8 h, 10 µM, tail cut + 10 µg/ml LPS, relative to 1% DMSO control",71%
same,response vs control in vivo at 30 µM,"[3]; Danio rerio, Leukocyte, 8 h, 30 µM, tail cut + 10 µg/ml LPS, relative to 1% DMSO control",59%
same,response vs control in vivo at 100 µM,"[3]; Danio rerio, Leukocyte, 8 h, 100 µM, tail cut + 10 µg/ml LPS, relative to 1% DMSO control",59%
same,response vs control in vivo at 300 µM,"[3]; Danio rerio, Leukocyte, 8 h, 300 µM, tail cut + 10 µg/ml LPS, relative to 1% DMSO control",34%
same,response vs control in vivo at 500 µM,"[3]; Danio rerio, Leukocyte, 8 h, 500 µM, tail cut + 10 µg/ml LPS, relative to 1% DMSO control",14%
same,Anti-inflammatory activity at MTC,"[3]; at MTC, (1−RLM)x100",86%
same,RLM (zebrafish-based assay),[3]; at the MTC given in Table 2,0.14
